Measurements as given in a compilation of properties of binary mixtures (doi:10.1016/j.molliq.2012.10.030).

Assay: xn = mol fraction of the nth substance listed
Conditions: 101 kPa

CNc1ccccc1 + CC[n+]1ccn(C)c1.F[B-](F)(F)F
speed of sound [m/s]
Conditions | 293.15 K | 298.15 K | 303.15 K | 308.15 K
x1 = 0.0712 | – | 1614.7 | 1602.2 | 1590.8
x1 = 0.0944 | – | 1613.8 | 1601 | –
x1 = 0.1175 | – | 1613.2 | 1600.3 | 1588.7
x1 = 0.1685 | 1624.3 | 1612.5 | 1599.3 | 1587.6
x1 = 0.2164 | – | – | 1599.5 | 1587
x1 = 0.2818 | 1626.5 | 1613.9 | – | 1587.3
x1 = 0.3365 | 1628.2 | – | 1601.2 | 1587.4
x1 = 0.3805 | 1629.4 | 1616.2 | 1602.2 | –
x1 = 0.4166 | 1630.8 | 1617.3 | 1602.8 | 1587.8
x1 = 0.4775 | 1632.2 | 1617.7 | 1602.8 | 1587.7
x1 = 0.5287 | 1632.6 | 1617.9 | 1602.4 | 1586.3
x1 = 0.5855 | 1631.8 | 1616.5 | 1601.1 | 1584.2
x1 = 0.6144 | 1631 | 1615.8 | 1599.8 | 1583
x1 = 0.6638 | 1629.2 | 1612.8 | 1596.4 | –
x1 = 0.7202 | 1625.3 | 1608.7 | 1591.8 | 1573.8
x1 = 0.7822 | 1618.8 | 1601.9 | 1584.4 | 1566.7
x1 = 0.8343 | 1612 | 1594.6 | 1577.1 | 1558.8
x1 = 0.8775 | 1605.6 | 1587.8 | 1570.3 | 1551.7

Cc1ccccc1N + CC[n+]1ccn(C)c1.F[B-](F)(F)F
speed of sound [m/s]
Conditions | 293.15 K | 298.15 K | 303.15 K | 308.15 K
x1 = 0.0684 | 1639.1 | 1625 | 1612.5 | 1600.1
x1 = 0.0786 | – | 1626.5 | – | 1601.3
x1 = 0.1243 | – | 1634.3 | 1621.2 | 1607.9
x1 = 0.1783 | – | 1645.9 | 1632 | 1618
x1 = 0.2255 | 1668.2 | 1657.2 | 1643.2 | –
x1 = 0.2781 | 1679.5 | 1670.1 | – | 1640.6
x1 = 0.3234 | 1689.5 | – | 1667.1 | 1651.6
x1 = 0.3712 | – | – | 1678 | 1662.1
x1 = 0.4096 | 1706.3 | – | 1685.2 | 1669.1
x1 = 0.4763 | 1716.8 | 1710.8 | – | 1679
x1 = 0.5242 | 1722.8 | 1716 | 1700.5 | 1683.9
x1 = 0.5781 | 1726.3 | 1717.7 | 1701.7 | 1685
x1 = 0.6254 | 1725.7 | – | 1698.4 | –
x1 = 0.6771 | 1723.3 | 1709.7 | 1692.5 | 1675.6
x1 = 0.7226 | 1716.8 | 1700.6 | 1682.6 | 1665.6
x1 = 0.7683 | 1708 | 1689.4 | 1670.5 | 1653.2
x1 = 0.8276 | 1692.8 | 1671.5 | 1651.2 | 1633.6
x1 = 0.8687 | 1679 | 1656.7 | 1635.4 | 1617.4

Nc1ccccc1 + CC[n+]1ccn(C)c1.F[B-](F)(F)F
speed of sound [m/s]
Conditions | 293.15 K | 298.15 K | 303.15 K | 308.15 K
x1 = 0.0697 | – | 1622.2 | 1610.3 | –
x1 = 0.0803 | 1635.7 | 1622.9 | – | 1598.9
x1 = 0.1286 | 1640 | 1626.7 | 1614.7 | 1602.6
x1 = 0.1717 | – | 1631.2 | – | 1606.5
x1 = 0.2251 | 1650.5 | 1637.2 | – | 1612.4
x1 = 0.2724 | 1656.5 | – | 1630.2 | 1617.6
x1 = 0.3253 | 1662.9 | – | 1636.4 | 1624.1
x1 = 0.3805 | 1669.9 | – | 1642.3 | 1630.2
x1 = 0.4288 | 1675 | 1662 | 1647.5 | 1634.5
x1 = 0.4681 | 1679 | 1666.2 | – | 1637.9
x1 = 0.5287 | – | 1670.4 | – | 1642
x1 = 0.5755 | – | 1673.2 | – | 1643
x1 = 0.6258 | – | 1673.9 | – | 1643.3
x1 = 0.6802 | – | 1673.3 | 1655.5 | –
x1 = 0.7231 | – | 1672 | – | 1639.2
x1 = 0.7785 | 1685.7 | 1667.6 | 1648.9 | 1634.7
x1 = 0.8257 | 1681.7 | 1663.2 | 1644.1 | 1628.9
x1 = 0.8697 | – | – | 1638.4 | –
